We go through 2 compounds from patent US20240102898A1, “IMPROVED METHOD FOR OPTICALLY CLEARING A TISSUE SAMPLE FOR A LIGHT MICROSCOPY EXAMINATION” (MobiCron GmbH, priority 2020, published 2024).

For data set [1] the following is noted: comparison of embedding media; cited from earlier work.
A short description of data set [2]: Vapor pressures of embedding media (FIG. 1, from the literature). An excerpt: The vapor pressures of various embedding media are known from the literature.

For the compound `CCOC(=O)C=Cc1ccccc1` [ethyl cinnamate, reference compound], the “vapor pressure (in words)” value in data set [1] was “comparatively high vapor pressure”.

As to `O=C(Cc1ccccc1)OCc1ccccc1` [benzyl phenylacetate, benzyl 2-phenylacetate], the “vapor pressure, times lower than that of ethyl cinnamate” value in data set [2] (at 25° C.) is “approximately 275 times”. The “volatility, times less volatile than DBE” value in data set [2] (expanded section in FIG. 1) is “about 4 times”. For the same compound, the “vapor pressure (in words)” value in data set [1] is on record as “lowest vapor pressure”.
